# Legend:
# Experiment in all cases: Kinase panel study
# Type in all cases: biochemical
# Settings in all cases: read-out: Percentage of inhibition; for inhibition at 1 µM: 1000nM; for inhibition at 10 µM: 10000nM
# AURKA (Aurora A) = biological target: T1, AURKA (Aurora A) (Homo sapiens, UniProt O14965)
# T1 construct: purchased Thermo Fisher Scientific
# T1 sequence (O14965 1-403): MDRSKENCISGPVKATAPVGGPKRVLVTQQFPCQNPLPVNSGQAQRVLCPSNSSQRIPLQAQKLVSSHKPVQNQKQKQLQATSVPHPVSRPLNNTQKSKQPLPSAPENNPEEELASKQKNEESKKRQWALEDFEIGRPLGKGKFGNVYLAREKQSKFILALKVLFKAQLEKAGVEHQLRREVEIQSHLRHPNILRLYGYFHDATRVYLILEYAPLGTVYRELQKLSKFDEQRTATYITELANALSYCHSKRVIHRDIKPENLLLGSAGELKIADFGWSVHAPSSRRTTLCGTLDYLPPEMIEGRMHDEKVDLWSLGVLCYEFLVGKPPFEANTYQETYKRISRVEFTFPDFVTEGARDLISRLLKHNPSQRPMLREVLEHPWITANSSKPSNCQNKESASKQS
# How it was run: (§1)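 Readout is percentage kinase inhibition. Testing used 1 µM or 10 µM compound in externally run ZLyte/Adapta in vitro assays, and IC50 values were derived within the same panel.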
# FGFR2 N549H = biological target: T2, FGFR2 N549H (Homo sapiens, UniProt P21802, N549H)
# T2 construct: purchased Thermo Fisher Scientific
# T2 sequence (P21802 22-821 N549H): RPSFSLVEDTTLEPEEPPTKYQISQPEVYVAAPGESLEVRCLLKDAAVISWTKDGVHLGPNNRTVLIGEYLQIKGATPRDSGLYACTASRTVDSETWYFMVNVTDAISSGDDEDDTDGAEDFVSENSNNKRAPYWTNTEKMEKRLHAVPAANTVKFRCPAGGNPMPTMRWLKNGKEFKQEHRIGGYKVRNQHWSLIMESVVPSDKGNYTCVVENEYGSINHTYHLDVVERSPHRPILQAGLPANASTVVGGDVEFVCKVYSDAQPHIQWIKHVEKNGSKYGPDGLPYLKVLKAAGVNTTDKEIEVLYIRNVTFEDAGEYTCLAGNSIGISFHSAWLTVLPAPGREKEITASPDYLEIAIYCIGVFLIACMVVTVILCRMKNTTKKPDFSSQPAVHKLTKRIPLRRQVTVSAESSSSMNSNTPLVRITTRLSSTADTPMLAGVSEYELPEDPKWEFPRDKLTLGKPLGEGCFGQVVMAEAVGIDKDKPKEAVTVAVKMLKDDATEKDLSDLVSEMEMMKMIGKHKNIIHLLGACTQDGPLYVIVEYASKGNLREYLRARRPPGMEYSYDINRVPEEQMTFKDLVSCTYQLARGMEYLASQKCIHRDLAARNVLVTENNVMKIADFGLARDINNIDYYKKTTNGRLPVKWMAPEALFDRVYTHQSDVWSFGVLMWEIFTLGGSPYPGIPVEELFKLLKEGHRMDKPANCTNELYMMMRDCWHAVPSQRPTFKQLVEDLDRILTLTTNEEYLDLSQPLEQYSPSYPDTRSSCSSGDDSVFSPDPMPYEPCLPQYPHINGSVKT
# How it was run: as §1
# FGFR3 = biological target: T3, FGFR3 (Homo sapiens, UniProt P22607)
# T3 construct: purchased Thermo Fisher Scientific
# T3 sequence (P22607 23-806): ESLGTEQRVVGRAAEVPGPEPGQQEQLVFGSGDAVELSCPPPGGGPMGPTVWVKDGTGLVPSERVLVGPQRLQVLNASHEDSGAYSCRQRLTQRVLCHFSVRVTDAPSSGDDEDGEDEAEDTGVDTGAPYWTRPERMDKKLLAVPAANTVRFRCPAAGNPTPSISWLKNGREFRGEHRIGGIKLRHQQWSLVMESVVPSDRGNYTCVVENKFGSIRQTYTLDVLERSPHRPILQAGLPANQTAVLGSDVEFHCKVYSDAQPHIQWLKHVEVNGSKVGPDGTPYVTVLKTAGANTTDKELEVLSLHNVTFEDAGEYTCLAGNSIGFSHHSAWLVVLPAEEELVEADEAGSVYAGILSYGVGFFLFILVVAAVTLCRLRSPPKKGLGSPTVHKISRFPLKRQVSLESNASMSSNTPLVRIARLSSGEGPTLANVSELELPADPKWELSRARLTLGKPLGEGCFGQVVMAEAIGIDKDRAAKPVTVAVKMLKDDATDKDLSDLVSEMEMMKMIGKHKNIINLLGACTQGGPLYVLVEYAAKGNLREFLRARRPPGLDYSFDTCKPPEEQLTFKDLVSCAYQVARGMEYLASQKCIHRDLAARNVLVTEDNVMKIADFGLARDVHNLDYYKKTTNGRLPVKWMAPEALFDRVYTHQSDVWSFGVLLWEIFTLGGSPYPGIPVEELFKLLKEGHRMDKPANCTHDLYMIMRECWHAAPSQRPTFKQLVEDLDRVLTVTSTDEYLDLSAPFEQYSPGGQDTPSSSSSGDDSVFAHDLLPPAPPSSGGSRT
# How it was run: as §1
# GRK6 = biological target: T4, GRK6 (Homo sapiens, UniProt P43250)
# T4 construct: purchased Thermo Fisher Scientific
# T4 sequence (P43250 whole entry): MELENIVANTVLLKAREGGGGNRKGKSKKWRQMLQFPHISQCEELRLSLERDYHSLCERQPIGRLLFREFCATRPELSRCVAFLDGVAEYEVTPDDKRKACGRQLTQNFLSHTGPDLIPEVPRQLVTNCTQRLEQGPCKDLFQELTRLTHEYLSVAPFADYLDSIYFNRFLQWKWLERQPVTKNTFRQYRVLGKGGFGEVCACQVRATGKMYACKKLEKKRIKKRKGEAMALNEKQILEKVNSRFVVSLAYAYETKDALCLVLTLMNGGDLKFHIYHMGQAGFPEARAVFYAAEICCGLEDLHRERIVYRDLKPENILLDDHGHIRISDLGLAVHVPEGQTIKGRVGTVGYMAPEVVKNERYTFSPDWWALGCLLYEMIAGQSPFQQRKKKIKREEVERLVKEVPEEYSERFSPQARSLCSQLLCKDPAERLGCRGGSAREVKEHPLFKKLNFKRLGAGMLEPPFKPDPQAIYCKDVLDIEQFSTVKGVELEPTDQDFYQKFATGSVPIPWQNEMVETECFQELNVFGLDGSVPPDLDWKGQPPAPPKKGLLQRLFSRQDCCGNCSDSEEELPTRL
# How it was run: as §1
# GSK3A (GSK3 alpha) = biological target: T5, GSK3A (GSK3 alpha) (Homo sapiens, UniProt P49840)
# T5 construct: purchased Thermo Fisher Scientific
# How it was run: as §1
# KIT V560G = biological target: T6, KIT V560G (Homo sapiens, UniProt P10721, V560G)
# T6 construct: purchased Thermo Fisher Scientific
# T6 sequence (P10721 26-976 V560G): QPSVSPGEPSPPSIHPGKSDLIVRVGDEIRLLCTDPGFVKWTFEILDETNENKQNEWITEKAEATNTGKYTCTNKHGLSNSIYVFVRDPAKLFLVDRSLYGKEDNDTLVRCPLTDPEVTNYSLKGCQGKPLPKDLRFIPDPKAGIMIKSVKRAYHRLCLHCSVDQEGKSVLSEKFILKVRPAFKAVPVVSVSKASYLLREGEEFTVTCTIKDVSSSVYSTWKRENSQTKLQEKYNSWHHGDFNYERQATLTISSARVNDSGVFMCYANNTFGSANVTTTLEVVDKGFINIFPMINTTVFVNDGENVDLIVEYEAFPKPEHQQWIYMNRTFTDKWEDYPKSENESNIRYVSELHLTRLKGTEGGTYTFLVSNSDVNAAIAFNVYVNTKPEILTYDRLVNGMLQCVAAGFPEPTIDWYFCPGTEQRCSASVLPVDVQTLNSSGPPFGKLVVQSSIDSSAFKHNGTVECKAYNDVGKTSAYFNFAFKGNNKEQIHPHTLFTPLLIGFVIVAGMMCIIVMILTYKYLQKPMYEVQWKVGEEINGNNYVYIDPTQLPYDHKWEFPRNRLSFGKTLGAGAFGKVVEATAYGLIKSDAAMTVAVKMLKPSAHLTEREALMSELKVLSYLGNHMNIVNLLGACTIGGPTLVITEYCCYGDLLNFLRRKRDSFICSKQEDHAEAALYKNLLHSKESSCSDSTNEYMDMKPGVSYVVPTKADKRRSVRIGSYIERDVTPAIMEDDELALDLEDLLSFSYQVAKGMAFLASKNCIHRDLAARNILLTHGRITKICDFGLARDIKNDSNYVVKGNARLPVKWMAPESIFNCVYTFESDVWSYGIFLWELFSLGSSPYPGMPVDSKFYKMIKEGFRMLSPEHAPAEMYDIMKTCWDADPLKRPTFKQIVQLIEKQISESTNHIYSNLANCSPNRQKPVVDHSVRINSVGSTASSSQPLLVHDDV
# How it was run: as §1
# LYN B = biological target: T7, LYN B (Homo sapiens, UniProt P07948)
# T7 construct: purchased Thermo Fisher Scientific
# T7 sequence (P07948 1-491 isoform P07948-2): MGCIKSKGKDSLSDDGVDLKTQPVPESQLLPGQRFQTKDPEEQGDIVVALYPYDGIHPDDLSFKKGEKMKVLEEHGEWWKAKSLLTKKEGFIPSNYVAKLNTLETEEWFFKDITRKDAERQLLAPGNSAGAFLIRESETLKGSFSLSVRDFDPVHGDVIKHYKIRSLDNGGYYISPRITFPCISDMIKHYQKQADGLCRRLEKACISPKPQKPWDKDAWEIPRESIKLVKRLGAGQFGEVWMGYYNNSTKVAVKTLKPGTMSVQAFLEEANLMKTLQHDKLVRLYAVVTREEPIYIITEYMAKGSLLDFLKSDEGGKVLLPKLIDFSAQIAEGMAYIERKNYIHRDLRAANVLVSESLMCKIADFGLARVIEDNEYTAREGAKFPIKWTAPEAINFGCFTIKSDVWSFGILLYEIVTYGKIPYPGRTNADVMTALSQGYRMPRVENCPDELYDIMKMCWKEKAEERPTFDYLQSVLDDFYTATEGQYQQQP
# How it was run: as §1
# MAPK12 (p38 gamma) = biological target: T8, MAPK12 (p38 gamma) (Homo sapiens, UniProt P53778)
# T8 construct: purchased Thermo Fisher Scientific
# T8 sequence (P53778 1-367): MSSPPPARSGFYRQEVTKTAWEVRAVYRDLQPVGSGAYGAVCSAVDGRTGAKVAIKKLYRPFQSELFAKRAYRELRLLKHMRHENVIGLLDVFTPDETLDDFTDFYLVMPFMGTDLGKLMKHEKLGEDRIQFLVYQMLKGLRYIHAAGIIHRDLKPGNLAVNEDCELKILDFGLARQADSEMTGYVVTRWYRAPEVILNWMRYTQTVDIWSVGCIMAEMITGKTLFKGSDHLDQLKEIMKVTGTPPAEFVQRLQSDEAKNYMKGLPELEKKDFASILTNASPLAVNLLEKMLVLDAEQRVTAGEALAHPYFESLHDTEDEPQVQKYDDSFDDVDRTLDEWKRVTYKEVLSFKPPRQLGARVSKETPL
# How it was run: as §1
# MARK3 = biological target: T9, MARK3 (Homo sapiens, UniProt P27448)
# T9 construct: purchased Thermo Fisher Scientific
# T9 sequence (P27448 whole entry): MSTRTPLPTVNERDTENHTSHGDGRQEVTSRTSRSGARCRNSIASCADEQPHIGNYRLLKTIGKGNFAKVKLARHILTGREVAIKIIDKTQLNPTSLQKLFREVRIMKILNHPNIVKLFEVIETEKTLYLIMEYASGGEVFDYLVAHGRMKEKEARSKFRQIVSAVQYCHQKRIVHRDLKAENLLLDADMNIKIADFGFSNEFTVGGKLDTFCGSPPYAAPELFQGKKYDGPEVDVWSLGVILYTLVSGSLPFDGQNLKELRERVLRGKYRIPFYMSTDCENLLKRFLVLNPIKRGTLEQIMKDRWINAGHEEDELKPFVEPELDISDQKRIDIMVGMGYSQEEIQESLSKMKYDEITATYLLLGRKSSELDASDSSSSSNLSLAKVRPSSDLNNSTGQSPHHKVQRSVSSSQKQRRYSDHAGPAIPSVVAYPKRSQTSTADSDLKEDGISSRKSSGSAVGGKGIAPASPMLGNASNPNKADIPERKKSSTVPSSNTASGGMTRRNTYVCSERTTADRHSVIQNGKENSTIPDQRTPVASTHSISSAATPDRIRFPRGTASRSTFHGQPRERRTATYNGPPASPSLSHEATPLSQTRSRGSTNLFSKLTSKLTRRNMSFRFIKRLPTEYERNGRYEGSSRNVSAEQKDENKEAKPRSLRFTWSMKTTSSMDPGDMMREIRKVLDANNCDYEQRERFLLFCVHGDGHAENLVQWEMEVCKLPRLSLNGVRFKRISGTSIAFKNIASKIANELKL
# How it was run: as §1
# PAK7 (KIAA1264) = biological target: T10, PAK7 (KIAA1264) (Homo sapiens, UniProt Q9P286)
# T10 construct: purchased Thermo Fisher Scientific
# T10 sequence (Q9P286 whole entry): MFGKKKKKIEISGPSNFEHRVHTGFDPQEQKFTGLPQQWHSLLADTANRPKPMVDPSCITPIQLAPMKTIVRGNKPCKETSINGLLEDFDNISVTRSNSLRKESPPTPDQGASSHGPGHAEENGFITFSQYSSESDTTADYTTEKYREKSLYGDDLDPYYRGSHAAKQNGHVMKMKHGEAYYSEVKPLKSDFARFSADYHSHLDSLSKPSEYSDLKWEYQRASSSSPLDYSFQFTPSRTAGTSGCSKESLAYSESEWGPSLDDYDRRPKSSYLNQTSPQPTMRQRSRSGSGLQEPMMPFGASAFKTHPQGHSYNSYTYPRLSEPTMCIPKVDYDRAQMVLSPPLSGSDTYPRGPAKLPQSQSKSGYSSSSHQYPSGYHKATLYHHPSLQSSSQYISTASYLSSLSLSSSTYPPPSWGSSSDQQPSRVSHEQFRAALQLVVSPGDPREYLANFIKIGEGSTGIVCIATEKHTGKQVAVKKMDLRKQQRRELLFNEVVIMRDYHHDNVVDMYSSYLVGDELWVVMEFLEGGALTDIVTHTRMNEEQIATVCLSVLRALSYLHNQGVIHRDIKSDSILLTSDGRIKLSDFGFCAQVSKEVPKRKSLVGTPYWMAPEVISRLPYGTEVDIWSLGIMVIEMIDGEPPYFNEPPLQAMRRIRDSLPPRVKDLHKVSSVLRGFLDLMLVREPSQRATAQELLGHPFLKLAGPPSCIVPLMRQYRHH
# How it was run: as §1
Compound,inhibition at 1 µM (AURKA (Aurora A)) [%],inhibition at 10 µM (AURKA (Aurora A)) [%],inhibition at 1 µM (FGFR2 N549H) [%],inhibition at 10 µM (FGFR2 N549H) [%],inhibition at 1 µM (FGFR3) [%],inhibition at 10 µM (FGFR3) [%],inhibition at 1 µM (GRK6) [%],inhibition at 10 µM (GRK6) [%],inhibition at 1 µM (GSK3A (GSK3 alpha)) [%],inhibition at 10 µM (GSK3A (GSK3 alpha)) [%],inhibition at 1 µM (KIT V560G) [%],inhibition at 10 µM (KIT V560G) [%],inhibition at 1 µM (LYN B) [%],inhibition at 10 µM (LYN B) [%],inhibition at 1 µM (MAPK12 (p38 gamma)) [%],inhibition at 10 µM (MAPK12 (p38 gamma)) [%],inhibition at 1 µM (MARK3) [%],inhibition at 10 µM (MARK3) [%],inhibition at 1 µM (PAK7 (KIAA1264)) [%],inhibition at 10 µM (PAK7 (KIAA1264)) [%]
"COc1ccc2c(c1OC)c(=O)n1c3ccc(O)cc3c3ccnc2c31 [MW01, 5-Hydroxy-10,11-dimethoxy-9H-benzo[c]indolo[3,2,1-ij][1,5]naphthyridin-9-one]",8,18,0,13,4,8,0,5,25,55,12,7,6,23,8,11,0,7,2,11
"COc1ccc2cc3c(N)nn(C(=O)c4cccc(N(C)C)c4)c3nc2c1 [MW05, (3-Amino-7-methoxypyrazolo[3,4-b]quinolin-1-yl)-[3-(dimethylamino)phenyl]methanone]",7,-5,-4,-22,1,-8,6,3,3,18,11,2,6,0,4,4,3,-5,15,13
